Measured values as given in US20080132568A1, “COMPOUNDS WITH ANTI-ANDROGENIC ACTIVITY AND THE USE THEREOF” (priority 2006, published 2008).
“Also recorded” adds a separate entry of the source.

How the values were obtained:
Assay type in all cases: cell-based, human
[1] = system: LNCaP cells; assay: LNCaP viability by propidium iodide exclusion and flow cytometry; conditions: 30 μM, 4 days
Protocol: (§1) Cell culture and treatment protocols: The LNCaP prostate cancer cells used in these studies were acquired from American Type Culture Collection (Manassas, Va.). All cell lines were maintained in Dulbecco's modified Eagle's medium (DMEM; Invitrogen, Carlsbad, Calif.) containing 5% heat-inactivated fetal calf serum (FCS; Sigma, St. Louis, Mo.) with streptomycin-penicillin antibiotics (designated DMEM/FCS) in a 5% CO2 incubator at 37° C. LAPC4 prostate cancer cells adapted to growth in DMEM and 5% FCS were acquired from George Wilding (University of Wisconsin Paul P. Carbone Comprehensive Cancer Center). For experiments evaluating androgenic responses, cells were cultured in DMEM containing 4% charcoal-stripped FCS and 1% unstripped FCS (designated DMEM/CSS). […]
(§2) Cell proliferation and viability assays: Cell numbers were determined using a hemacytometer. Relative cell growth changes were determined using cells plated in 96-well tissue culture plates using the CyQUANT NF Cell Proliferation Assay Kit (Invitrogen) according to manufacturer's instructions. Cell viability was measured using trypan blue exclusion and quantified using light microscopy and hemacytometry. Additionally, cell viability was measured by propidium iodide exclusion using flow cytometry (FACScan; BD Biosciences, San Jose, Calif.) after VE and ATQ treatment.

[2] = system: AR mRNA; assay: AR mRNA expression by qPCR, LNCaP; conditions: 4 days
Protocol: (§3) Messenger RNA expression analysis: Total RNA was extracted from cells using TRIzol Reagent (Invitrogen, Carlsbad, Calif.) and cDNA was prepared from total RNA using the High Capacity cDNA Reverse Transcription Kit (Applied Biosystems, Foster City, Calif.). Quantititive PCR was performed for AR expression using an Applied Biosystems 7900HT Fast Real-Time PCR System (Carlsbad, Calif.) and QuantiTect Primers Assays (Qiagen Inc., Valencia, Calif.) for AR and GAPDH mRNA.

[3] = system: PSA; assay: Prostate specific antigen analysis, LNCaP medium; conditions: for R1881-induced PSA release / PSA levels in medium: 10 to 40 μM
Protocol: Prostate specific antigen analysis: LNCaP cells were cultured in 96-well plates (Costar) at 5,000 cells per well in DMEM/CSS 1 day before treatment. Forty-eight hours after treatment, media levels of PSA released from LNCaP cells were measured using a PSA Enzyme Immunoassay Test Kit (BioCheck, Inc., Foster City, Calif.) according to manufacturer's instructions supplied with the kit. PSA levels were normalized to cell numbers as determined using the CyQUANT NF Cell Proliferation Assay Kit (Invitrogen), as described previously.

[4] = system: PC3 prostate cancer cell line; assay: Growth of androgen-independent PC3 cells; conditions: 4 days, data not shown
Protocol: as §2

[5] = system: androgen-sensitive MMTV promoter; assay: Promoter activation assay (MMTV/luciferase) in LNCaP; conditions: 30 μM, 48 hours
Protocol: Promoter activation assay: LNCaP and LAPC4 prostate carcinoma cell lines were cultured in 12- or 24-well cell culture plates (Costar) in DMEM/CSS 2 to 3 days before transfection. Androgen-induced transcriptional activation was determined using a reporter construct with an MMTV promoter that regulates the expression of luciferase (Thompson T A et al., In Vitro Cell. Dev. Biol. 1993, 29A:165-170). LNCaP cells were transfected using the calcium phosphate precipitation method with an MMTV/luciferase plasmid. LAPC4 cells were transfected with an MMTV/luciferase plasmid using the FuGENE 6 Transfection Reagent (Roche Applied Science), according to the manufacturer's instructions. Twenty-four hours after transfection, cells were treated with R1881 with or without test reagents at the specified concentrations. Cell extracts were acquired 24 to 48 hours after treatment in 100 μL of Cell Culture Lysis Reagent (Promega, Madison, Wis.). Luciferase activity was measured using the Luciferase Assay Substrate (Promega, Madison, Wis.) according to instructions and read on a TD-20/20 Luminometer (Turner Designs, Sunnyvale, Calif.).

[6] = system: AR mRNA; assay: AR mRNA expression by qPCR, LAPC4; conditions: for AR mRNA levels (qPCR): LAPC4, 4 days
Protocol: as §3

[7] = system: LAPC4 prostate cancer cells; assay: CyQUANT cell proliferation assay, LAPC4; conditions: 10 to 50 μM, 4 days
Protocol: as §1, §2

[8] = system: AR protein; assay: Immunoblot analysis of AR protein, LAPC4
Protocol: (§4) Immunoblot analysis: LNCaP or LAPC4 prostate cancer cells were plated at a density of 1×10^6 cells per 100 mm cell culture plate in 10 ml of DMEM/CSS and maintained in incubators at 37° C. in 5% CO2. […] Cell extracts were stored at −80° C. until analysis. Total protein (25 μg) from cell extracts were electrophoresed on 7.5% SDS-polyacrylamide gels and transferred to Immobilon-P membranes (Millipore Corp., Bedford, Mass.) using a GENIE wet transfer system (Idea Scientific, Minneapolis, Minn.). Membranes were blocked in Tris-buffered saline containing 5% nonfat dry milk and then incubated with mouse anti-AR (441) monoclonal antibody (Santa Cruz Biotechnology, Santa Cruz, Calif.) or mouse anti-actin antibody (A5441; Sigma). After washing, membranes were incubated with a secondary horseradish peroxidase-conjugated goat anti-mouse IgG (Biomeda, Foster City, Calif.) and analyzed using Western Lightening Chemiluminescence Reagent Plus (Boston, Mass.) on a Kodak Image Station 4000MM (Rochester, N.Y.). Band intensities were determined using Kodak Molecular Imaging Software.

[9] = system: AR protein; assay: Immunoblot analysis of AR protein, LNCaP; conditions: 4 days
Protocol: as §4

[10] = system: LNCaP prostate cancer cells; assay: CyQUANT cell proliferation assay, LNCaP; conditions: 10 to 50 μM, 4 days
Protocol: as §1, §2

Structure (SMILES) | Cell viability [1] | AR mRNA levels (qPCR) [2] | R1881-induced PSA release / PSA levels in medium [3] | PC3 cell growth [4] | Androgen-induced (R1881) MMTV promoter luciferase activity [5] | AR mRNA levels (qPCR) [6] | LAPC4 cell growth (CyQUANT) [7] | reduction in AR protein levels ([8]; LAPC4, 25 μM, 4 days) | AR protein levels ([8]; LAPC4, 4 days) | decrease in AR mRNA levels ([2]; 30 μM) | reduction in R1881-induced PSA release compared to untreated control cells ([3]; 10 μM) | decrease in PSA release compared to untreated controls ([3]; 40 μM) | reduction in AR protein levels ([9]; 30 μM) | AR protein levels [9] | LNCaP cell growth (relative growth, CyQUANT) [10] | decrease in AR mRNA levels ([6]; LAPC4, 30 μM, 4 days)
Cc1c(C)c2c(c(C)c1O)CCC(C)(CCCC(C)CCCC(C)CCCC(C)C)O2 (racemic) [VE, dl-α-tocopherol, reference compound] | did not affect | did not affect | did not affect; also recorded: remained unchanged | neither ATQ nor VE decreased the growth | significantly increased | did not affect | modest, but significant, decrease; also recorded: decreased slightly; also recorded: much less effective | – | – | – | – | – | – | – | – | –
CC1=C(C)C(=O)C(CC[C@](C)(O)CCC[C@H](C)CCC[C@H](C)CCCC(C)C)=C(C)C1=O [ATQ, α-tocopherylquinone] | significantly decreased | reduced levels | significantly reduced; also recorded: inhibited | neither ATQ nor VE decreased the growth | inhibit; also recorded: significantly reduced | reduced levels | dose-dependent decrease; also recorded: significantly decreased | 4 fold | decreased | 2 fold | 50% | 4 fold | 4 fold | decreased | dose-dependent decrease; also recorded: significantly decreased | 2 fold
